Test results published in patent US20190030036A1, “PHOSPHODIESTERASE INHIBITOR TREATMENT” (Cyrano Therapeutics, Inc., priority 2013, published 2019).
Like-named read-outs stand apart in the source and are kept apart here.

Legend:
Body weight (Example 8) = format: in vivo, human
patients with hyposmia [1] = experiment: Side effects of intranasal theophylline (Example 7); format: in vivo, human; conditions: intranasal theophylline 20 μg per naris once a day
Text: Ten hyposmia patients were enrolled in the study; eight patients have completed all four phases of the study with the remaining two patients still in process.

[2] = test system: patients with hyposmia and hypogeusia
Description: Subjective changes in smell and taste function under each study condition were measured by questionnaire before measurements of smell or taste function. Responses were graded on a scale from 0 to 100, with 0 reflecting no subjective response in overall sensory function; 100, return to normal sensory function; and values between 0 and 100 intermediate responses. Overall sensory function was defined as the ability to smell all odors and identify all tastants, although response intensity varied.
In this prior trial, oral theophylline was administered daily in 2 divided doses (at breakfast and lunch) of 200, 400, 600, or 800 mg for 2 to 12 months of treatment. Treatment was divided into 2- to 4-month periods, at which time patients returned to The Clinic for measurements of subjective sensory responses, olfactometry, gustometry, serum theophylline level, and body weight.
Each patient delivered the theophylline dose in each naris once daily throughout the study. Patients underwent evaluation 1, 2, and 4 weeks during drug use with the same measurements used for the oral study.
Values for the oral trial were taken from the last measurements made before discontinuation of oral drug treatment and before initiation of the intranasal trial. […] Values for the intranasal pilot study were taken from measurements obtained after completion of 4 weeks of intranasal treatment.

[3] = test system: patients with hyposmia and hypogeusia; experiment: Adverse effects of intranasal theophylline (Example 8); format: in vivo, human; conditions: intranasal theophylline 20 μg/d in each naris, 4 weeks
Description: Under each condition, we performed subjective evaluations of taste and smell functions, quantitative measurements of taste (gustometry) and smell (olfactometry), and measurements of serum theophylline level and body weight.
The intranasal administration device was a calibrated 1 mL syringe fitted with a nozzle that fit comfortably into the anterior naris (Wolfe Tory Medical, Inc) and loaded under sterile conditions with 20 μg of theophylline methylpropyl paraben in a 0.4-mL saline solution (Foundation Care). Patients were instructed to direct the spray superiorly into the nasal cavity but not posteriorly into the nasopharynx. This technique was practiced before study initiation with sterile saline.

patients with hyposmia [4] = experiment: Side effects of oral theophylline (Example 1); format: in vivo, human; conditions: oral theophylline 200-800 mg daily in divided doses in middle of meals
Text: Patients were required to take the drug in divided doses in middle of meals (breakfast and lunch).

Compound: Cn1c(=O)c2[nH]cnc2n(C)c1=O [theophylline]
- mean (SEM) weight increase from pretreatment values (Body weight (Example 8); intranasal theophylline 20 μg/d in each naris): 2.5 (0.5) kg
- mean (SEM) weight increase from pretreatment values (Body weight (Example 8); oral theophylline 200 to 800 mg/d): 1.5 (0.4) kg
- side effects of intranasal use (patients with hyposmia [1]): No side effects
- earliest time improvement was measured ([2]; intranasal theophylline): 1 week
- improvement in taste and smell functions compared with oral treatment ([2]; intranasal theophylline 20 μg/d in each naris, 4 weeks): 2 fold
- patients reporting overall improvement in taste and smell functions ([2]; intranasal theophylline 20 μg/d in each naris, 4 weeks, 10 patients): 8 patients
- earliest time improvement was measured ([2]; oral theophylline): 2 months
- patients reporting overall increased taste and smell function ([2]; oral theophylline 200 to 800 mg/d, 2 to 12 months, 10 patients): 6 patients
- adverse effects [3]: No adverse effects
- Side effects (patients with hyposmia [4]): generally minimal
